Data set [1] has as its system SW-620. Nature of the data set: Antiproliferative activity against human SW-620 cells assessed as inhibition of cell growth incubated for 48 hrs by CCK8 assay. Conditions: SW-620, 48 h. In kind it is functional, cell-based.
For data set [2], the system named is NCI-H358. Nature of the data set: Antiproliferative activity against human NCI-H358 cells assessed as inhibition of cell growth incubated for 48 hrs by CCK8 assay. It is filed as functional, cell-based. The note with it: NCI-H358, 48 h. (In general: Tetrazolium dyes change colour on reduction, which living cells bring about.)
The nature of data set [3]: Water solubility of compound. The note with it: buffer. It is filed as physicochemical.
In data set [4] the test system is HCT-116. The data set can be described thus: Antiproliferative activity against human HCT-116 cells assessed as inhibition of cell growth incubated for 48 hrs by CCK8 assay. In kind it is functional, cell-based. The note with it: HCT-116, 48 h.
For data set [5], the system named is ASPC1. The data set can be described thus: Antiproliferative activity against human ASPC1 cells assessed as inhibition of cell growth incubated for 48 hrs by CCK8 assay. In kind it is functional, cell-based. Conditions: ASPC1, 48 h.

SMILES strings stand for the structures. Structures can show the parent of a compound that is named as a salt.

Broadly, the IC50 is the concentration at which inhibition is half-maximal.

Consider `C[C@@H]1CC[C@@]2(OC1)O[C@H]1C[C@H]3[C@@H]4CC=C5C[C@@H](OC(=O)c6cccc(C(=O)NO)c6)CC[C@]5(C)[C@H]4CC[C@]3(C)[C@H]1[C@@H]2C`, for which the IC50 in data set [1] was found to be 6.8 µM; in data set [2], 9.54 µM; in data set [4], 34.4 µM; in data set [5], 4.96 µM. The solubility result in data set [3] is given as “Soluble”.

On to `C[C@@H]1CC[C@@]2(OC1)O[C@H]1C[C@H]3[C@@H]4CC=C5C[C@@H](OC(=O)CCCC[P+](c6ccccc6)(c6ccccc6)C6CCCCC6)CC[C@]5(C)[C@H]4CC[C@]3(C)[C@H]1[C@@H]2C.[Br-]`, for which the half-inhibitory concentration (IC50) in data set [1] worked out at 0.873 µM; in data set [2] it was 3.52 µM; in data set [4], 4.15 µM; in data set [5] it was 0.313 µM. In addition, in data set [3], the solubility result is “Soluble”.

For the compound `C[C@@H]1CC[C@@]2(OC1)O[C@H]1C[C@H]3[C@@H]4CC=C5C[C@@H](OC(=O)CCCC[P+](c6ccccc6)(c6ccccc6)c6cccc(-c7ccccc7)c6)CC[C@]5(C)[C@H]4CC[C@]3(C)[C@H]1[C@@H]2C.[Br-]`, the IC50 in data set [1] was determined as 1.16 µM; in data set [2], 3.66 µM; in data set [4] it was 4.22 µM; in data set [5], 0.29 µM. The solubility entry in data set [3] is “Soluble”.

Regarding `C[C@@H]1CC[C@@]2(OC1)O[C@H]1C[C@H]3[C@@H]4CC=C5C[C@@H](OC(=O)c6nccnc6C(=O)NO)CC[C@]5(C)[C@H]4CC[C@]3(C)[C@H]1[C@@H]2C`, the half-maximal inhibitory concentration (IC50) in data set [1] was > 40 µM; in data set [2], 35.5 µM; in data set [4], 35.8 µM; in data set [5] it was 9.29 µM. In addition, the solubility result in data set [3] is reported as “Soluble”.

In the case of `C[C@@H]1CC[C@@]2(OC1)O[C@H]1C[C@H]3[C@@H]4CC=C5C[C@@H](OC(=O)/C=C/C(=O)NO)CC[C@]5(C)[C@H]4CC[C@]3(C)[C@H]1[C@@H]2C`, the half-maximal inhibitory concentration (IC50) was 16.9 µM in data set [1], 36.8 µM in data set [2], 39 µM in data set [4] and 11.4 µM in data set [5]. In addition, the solubility entry in data set [3] is given as “Soluble”.

For `C[C@@H]1CC[C@@]2(OC1)O[C@H]1C[C@H]3[C@@H]4CC=C5C[C@@H](OC(=O)CCCC[P+](C6CCCCC6)(C6CCCCC6)C6CCCCC6)CC[C@]5(C)[C@H]4CC[C@]3(C)[C@H]1[C@@H]2C.[Br-]`, the IC50 in data set [1] was 0.448 µM; in data set [2], 4.04 µM; in data set [4] it was 4 µM; in data set [5] it was 0.185 µM. Also, the solubility entry in data set [3] is reported as “Soluble”.

For the compound `CCCC[P+](CCCC)(CCCC)CCCCC(=O)O[C@H]1CC[C@@]2(C)C(=CC[C@H]3[C@@H]4C[C@@H]5O[C@]6(CC[C@@H](C)CO6)[C@@H](C)[C@@H]5[C@@]4(C)CC[C@@H]32)C1.[Br-]`, the 50% inhibitory concentration (IC50) was 1.17 µM in data set [1], 2.18 µM in data set [2], 3.99 µM in data set [4] and 1.09 µM in data set [5]. Further, in data set [3], the solubility entry is on record as “Soluble”.

With `C[C@@H]1CC[C@@]2(OC1)O[C@H]1C[C@H]3[C@@H]4CC=C5C[C@@H](OC(=O)CCCC[P+](c6ccc(Cl)cc6)(c6ccc(Cl)cc6)c6ccc(Cl)cc6)CC[C@]5(C)[C@H]4CC[C@]3(C)[C@H]1[C@@H]2C.[Br-]`, the concentration for half-maximal inhibition (IC50) in data set [1] was found to be 6.8 µM; in data set [2], 1.71 µM; in data set [4] it was 4.32 µM; in data set [5] it was 0.652 µM. For the same compound, in data set [3], the solubility result is reported as “Soluble”.

Take `Cc1cc(C(=O)NO)cc(C(=O)O[C@H]2CC[C@@]3(C)C(=CC[C@H]4[C@@H]5C[C@@H]6O[C@]7(CC[C@@H](C)CO7)[C@@H](C)[C@@H]6[C@@]5(C)CC[C@@H]43)C2)c1`: the 50% inhibitory concentration (IC50) stood at 10.7 µM in data set [1], 15.2 µM in data set [2], 32.8 µM in data set [4] and 7.8 µM in data set [5]. Further, the solubility result in data set [3] is listed as “Soluble”.

For the compound `C[C@@H]1CC[C@@]2(OC1)O[C@H]1C[C@H]3[C@@H]4CC=C5C[C@@H](OC(=O)CCCC(=O)NO)CC[C@]5(C)[C@H]4CC[C@]3(C)[C@H]1[C@@H]2C`, the half-maximal inhibitory concentration (IC50) was found to be 2.43 µM in data set [1], 4.32 µM in data set [2], 32.5 µM in data set [4] and 2.14 µM in data set [5]. The solubility entry in data set [3] was “Soluble”.

`C[C@@H]1CC[C@@]2(OC1)O[C@H]1C[C@H]3[C@@H]4CC=C5C[C@@H](OC(=O)CCCCC(=O)NO)CC[C@]5(C)[C@H]4CC[C@]3(C)[C@H]1[C@@H]2C`: the 50% inhibitory concentration (IC50) in data set [1] amounted to 1.92 µM; in data set [2], 12.6 µM; in data set [4], 38.8 µM; in data set [5], 2.31 µM. The solubility entry in data set [3] is reported as “Soluble”.

Regarding `C[C@@H]1CC[C@@]2(OC1)O[C@H]1C[C@H]3[C@@H]4CC=C5C[C@@H](OC(=O)CCCC[P+](c6ccccc6)(c6ccccc6)c6ccccn6)CC[C@]5(C)[C@H]4CC[C@]3(C)[C@H]1[C@@H]2C.[Br-]`, the IC50 in data set [1] is 0.778 µM; in data set [2] it was 3.54 µM; in data set [4], 4.25 µM; in data set [5], 0.648 µM. In addition, in data set [3], the solubility entry is reported as “Soluble”.

Take `C[C@@H]1CC[C@@]2(OC1)O[C@H]1C[C@H]3[C@@H]4CC=C5C[C@@H](OC(=O)CCC(=O)NO)CC[C@]5(C)[C@H]4CC[C@]3(C)[C@H]1[C@@H]2C`: the IC50 in data set [1] worked out at 5.22 µM; in data set [2], 7.47 µM; in data set [4], 31.8 µM; in data set [5], 7.99 µM. Besides, the solubility result in data set [3] is recorded as “Soluble”.

As for `C[C@@H]1CC[C@@]2(OC1)O[C@H]1C[C@H]3[C@@H]4CC=C5C[C@@H](OC(=O)CCCC[P+](c6ccc(F)cc6)(c6ccc(F)cc6)c6ccc(F)cc6)CC[C@]5(C)[C@H]4CC[C@]3(C)[C@H]1[C@@H]2C.[Br-]`, the 50% inhibitory concentration (IC50) in data set [1] was determined as 1.42 µM; in data set [2] it was 3.82 µM; in data set [4] it was 4.16 µM; in data set [5] it was 0.728 µM. Also, in data set [3], the solubility entry is “Soluble”.

With `C[C@@H]1CC[C@@]2(OC1)O[C@H]1C[C@H]3[C@@H]4CC=C5C[C@@H](OC(=O)CCCCCCC(=O)NO)CC[C@]5(C)[C@H]4CC[C@]3(C)[C@H]1[C@@H]2C`, the IC50 is 11.1 µM in data set [1], 23.1 µM in data set [2], > 40 µM in data set [4] and 22.9 µM in data set [5]. Besides, in data set [3], the solubility result was “Soluble”.

Consider `C[C@@H]1CC[C@@]2(OC1)O[C@H]1C[C@H]3[C@@H]4CC=C5C[C@@H](OC(=O)CCCC[P+](C)(C)C)CC[C@]5(C)[C@H]4CC[C@]3(C)[C@H]1[C@@H]2C.[Br-]`, for which the IC50 was determined as 9.59 µM in data set [1], 13.6 µM in data set [2], 10.1 µM in data set [4] and 7.44 µM in data set [5]. Also, the solubility result in data set [3] is on record as “Soluble”.

`CCCCCCCC[P+](CCCCCCCC)(CCCCCCCC)CCCCC(=O)O[C@H]1CC[C@@]2(C)C(=CC[C@H]3[C@@H]4C[C@@H]5O[C@]6(CC[C@@H](C)CO6)[C@@H](C)[C@@H]5[C@@]4(C)CC[C@@H]32)C1.[Br-]`: the IC50 in data set [1] is 29 µM; in data set [2], 27.1 µM; in data set [4], 31.4 µM; in data set [5], 7.63 µM. Also, the solubility result in data set [3] is reported as “Soluble”.

With `CC[P+](CC)(CC)CCCCC(=O)O[C@H]1CC[C@@]2(C)C(=CC[C@H]3[C@@H]4C[C@@H]5O[C@]6(CC[C@@H](C)CO6)[C@@H](C)[C@@H]5[C@@]4(C)CC[C@@H]32)C1.[Br-]`, the IC50 in data set [1] was 4.39 µM; in data set [2] it was 3.51 µM; in data set [4], 5 µM; in data set [5] it was 2.62 µM. In data set [3], the solubility result is reported as “Soluble”.

As for `C[C@@H]1CC[C@@]2(OC1)O[C@H]1C[C@H]3[C@@H]4CC=C5C[C@@H](OC(=O)CCCCCCCCC(=O)NO)CC[C@]5(C)[C@H]4CC[C@]3(C)[C@H]1[C@@H]2C`, the IC50 worked out at 23.4 µM in data set [1], 10.4 µM in data set [2], 33.4 µM in data set [4] and 15 µM in data set [5]. For the same compound, in data set [3], the solubility entry was “Soluble”.

As to `C[C@@H]1CC[C@@]2(OC1)O[C@H]1C[C@H]3[C@@H]4CC=C5C[C@@H](O)CC[C@]5(C)[C@H]4CC[C@]3(C)[C@H]1[C@@H]2C` [DISOGENIN], the IC50 in data set [1] is > 40 µM; in data set [2] it was > 40 µM; in data set [4], 31.4 µM; in data set [5], 63.1 µM.

Take `COc1cccc2c1C(=O)c1c(O)c3c(c(O)c1C2=O)C[C@@](O)(C(=O)CO)C[C@@H]3O[C@H]1C[C@H](N)[C@H](O)[C@H](C)O1` [DOXORUBICIN HYDROCHLORIDE]: the IC50 was < 5 µM in data set [1], < 5 µM in data set [2], > 1.25 µM in data set [4] and < 5 µM in data set [5].

These data come from ChEMBL document CHEMBL5131520, “Synthesis and Antitumor Activity of Diosgenin Hydroxamic Acid and Quaternary Phosphonium Salt Derivatives” (ACS Med Chem Lett, 2022).
